The target of test [1] is T1, rat ENaC (Rattus norvegicus, UniProt P37089+P37090+P37091).
T1 construct: from tissue; host or cells: kidney distal tubule of anesthetized female Wistar rats, in vivo
T1 sequence (P37089 1-698): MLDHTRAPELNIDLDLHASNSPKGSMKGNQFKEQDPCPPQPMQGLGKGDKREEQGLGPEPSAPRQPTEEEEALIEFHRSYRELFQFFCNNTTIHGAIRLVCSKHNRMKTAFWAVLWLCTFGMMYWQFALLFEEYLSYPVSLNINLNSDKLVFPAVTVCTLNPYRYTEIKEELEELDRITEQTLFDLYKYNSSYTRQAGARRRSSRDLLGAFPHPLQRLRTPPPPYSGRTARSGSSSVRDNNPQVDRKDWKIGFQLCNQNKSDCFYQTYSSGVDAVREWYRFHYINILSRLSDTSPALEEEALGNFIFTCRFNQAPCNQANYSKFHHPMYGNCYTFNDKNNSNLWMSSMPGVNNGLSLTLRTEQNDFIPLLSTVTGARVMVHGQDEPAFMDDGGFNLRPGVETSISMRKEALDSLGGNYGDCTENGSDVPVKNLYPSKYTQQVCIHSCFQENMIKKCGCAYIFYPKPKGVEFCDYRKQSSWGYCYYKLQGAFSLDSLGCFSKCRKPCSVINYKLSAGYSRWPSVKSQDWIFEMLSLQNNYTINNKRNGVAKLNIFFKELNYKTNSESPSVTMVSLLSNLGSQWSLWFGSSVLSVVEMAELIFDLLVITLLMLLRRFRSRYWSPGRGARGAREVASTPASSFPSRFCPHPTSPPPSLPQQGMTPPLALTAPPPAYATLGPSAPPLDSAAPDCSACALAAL
T1 sequence (P37090 1-638): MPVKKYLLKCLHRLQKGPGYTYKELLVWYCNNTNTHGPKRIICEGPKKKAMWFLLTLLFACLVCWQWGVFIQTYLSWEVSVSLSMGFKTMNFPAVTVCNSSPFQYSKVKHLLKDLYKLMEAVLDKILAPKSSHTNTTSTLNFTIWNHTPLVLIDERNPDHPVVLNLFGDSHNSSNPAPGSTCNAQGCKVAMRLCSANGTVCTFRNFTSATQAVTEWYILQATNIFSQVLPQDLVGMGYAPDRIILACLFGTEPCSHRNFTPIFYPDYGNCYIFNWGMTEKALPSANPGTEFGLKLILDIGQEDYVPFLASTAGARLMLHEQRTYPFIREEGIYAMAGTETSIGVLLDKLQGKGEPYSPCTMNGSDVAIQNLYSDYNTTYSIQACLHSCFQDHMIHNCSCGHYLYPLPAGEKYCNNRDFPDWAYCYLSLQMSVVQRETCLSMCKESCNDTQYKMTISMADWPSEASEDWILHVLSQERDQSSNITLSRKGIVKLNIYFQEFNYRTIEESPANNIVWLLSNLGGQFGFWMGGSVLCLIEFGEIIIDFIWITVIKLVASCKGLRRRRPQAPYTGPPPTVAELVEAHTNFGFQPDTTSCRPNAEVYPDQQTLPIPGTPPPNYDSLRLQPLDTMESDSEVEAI
T1 sequence (P37091 1-650): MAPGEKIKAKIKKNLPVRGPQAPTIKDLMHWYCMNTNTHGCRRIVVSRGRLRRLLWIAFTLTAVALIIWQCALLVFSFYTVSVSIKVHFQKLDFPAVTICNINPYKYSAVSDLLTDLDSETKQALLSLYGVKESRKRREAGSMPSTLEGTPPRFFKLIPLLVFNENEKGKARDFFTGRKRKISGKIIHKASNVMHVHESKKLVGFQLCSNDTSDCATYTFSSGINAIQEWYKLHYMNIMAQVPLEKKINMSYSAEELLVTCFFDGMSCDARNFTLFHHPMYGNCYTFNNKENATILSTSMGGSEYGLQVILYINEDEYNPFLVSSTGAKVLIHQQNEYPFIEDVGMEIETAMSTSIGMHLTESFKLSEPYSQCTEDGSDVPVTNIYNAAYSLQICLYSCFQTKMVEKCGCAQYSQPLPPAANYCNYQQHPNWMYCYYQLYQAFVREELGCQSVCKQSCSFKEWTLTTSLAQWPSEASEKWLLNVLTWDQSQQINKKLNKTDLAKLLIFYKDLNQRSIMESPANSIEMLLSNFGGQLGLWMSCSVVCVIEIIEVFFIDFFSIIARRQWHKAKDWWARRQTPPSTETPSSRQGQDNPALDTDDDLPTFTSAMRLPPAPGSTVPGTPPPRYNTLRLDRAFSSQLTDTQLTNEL
Kind of test: Rat potency from renal electrolyte excretion during i.v. infusion. The format is in vivo. As to conditions: read-out: potency for rat ENaC (EC50, inhibiting 50% of the potassium excretion), normal rats, free concentrations, estimated. As to the method: The potency of AZD5634 was also assessed in vivo in rats. Female Wistar rats were anesthetized by means of spontaneously breathing isoflurane (induction concentration of 5% followed by 2%). A catheter was positioned in the carotid artery for blood sampling and mean arterial blood pressure and heart rate were measured. […] The urinary bladder was catheterized for urine collection. The rats were left to stabilize for at least 30 min after surgery during constant basal infusions before any test compound or vehicle infusion was initiated. Urine was collected over 20-min periods; two at baseline (i.e., preexposure), followed by three 30 min exposures of increasing doses of test compound or vehicle, where urine was collected over the last 20 min for each dose. Additional urine was collected during the washout period (0–20, 20–40, and 40–60 min after cessation of the infusion protocol). Blood samples were collected 5 min before the end of each urine collection period for electrolyte evaluation (iSTAT analyzer, Abbott Laboratories Inc) and plasma concentration of drug (LC-MSMS). Urine production, electrolytes (ABL700, Radiometer Medical ApS, Brønshøj, Denmark, for urine), as well as concentration of test compound (LC-MSMS) were evaluated.
Rat electrolyte data were analyzed by means of repeated-measures ANCOVA (SAS v.9).

Test [2] relates to sodium/hydrogen exchangers. On the set-up: method as in PMID 33974881. The note with it: specificity unknown; cited from earlier work.
Test [3] relates to people with CF. On the set-up: method as in PMID 35227647. The note with it: single-dose inhalation, NCT02950805; cited from earlier work.

On to AZD5634, for which the EC50 in test [1] was 8.6 nM. In addition, in test [2], the “effect on sodium/hydrogen exchangers” value was “blocks sodium/hydrogen exchangers”. Also, the “effect on MCC” value in test [3] is given as “did not demonstrate augmented MCC”.

(Values after paper PMC9602792, “Preclinical evaluation of the epithelial sodium channel inhibitor AZD5634 and implications on human translation” (American Journal of Physiology - Lung Cellular and …, 2022).)
